Format in all cases: cell-based
Experiment [1] relates to S. aureus FRI-1169.
The test system of experiment [2] is S. aureus (MN8).
The test system of experiment [3] is S. aureus (MN8). This is another data set of the same source.
Experiment [4] has as its system S. aureus FRI-1187. The settings on record: for ELISA: TSST-1 ng/OD unit / Reduction of Toxin %: Table 5, FRI-1187. A general note: ELISA stands for enzyme-linked immunosorbent assay.
Experiment [5] deals with S. aureus strain RN 6390.
In experiment [6] the test system is S. aureus FRI-1187.
In experiment [7] the test system is S. aureus FRI-1169. The source holds these as a separate data set.
Where [8] appears, read: Table 1, 0.5% test compound, 24 h.
The mark [9] stands for this setting: Table 1, 0.5% test compound, vs control.
[10] abbreviates: Table 6, Cetiol 1414E 0, PEA 0.05%.
Where [11] appears, read: Table 6, Cetiol 1414E 0, PEA 0.15%.
Where [12] appears, read: Table 6, Cetiol 1414E 0, PEA 0.3%.
The mark [13] stands for this setting: Table 6, Cetiol 1414E 0, PEA 0.5%.
[14] abbreviates: Table 10, Cetiol 2.5 mM, PABA 0%.
Setting [15] is: Table 10, Cetiol 10 mM, PABA 0%.

Where “and” joins values, the source holds several entries; their conditions need not be identical. Equal values may be shown once. Read-outs that look alike come from different tables or passages of the source.

In the case of `OCCc1ccccc1` [Phenylethyl alcohol], the “Optical Density” value in experiment [1] is 1.263 and 1.208; in experiment [2], 0.542 and 0.551 and 0.476 and 0.554; in experiment [6], 1.296 and 1.244. Also, the “effect on the growth of S. aureus cells” value in experiment [1] is listed as “minimal, if any, effect on the growth”; in experiment [6], “minimal, if any, effect on the growth”. In addition, in experiment [2], the “Log CFU/mL” value was 8.6 Log CFU/mL and 8.7 Log CFU/mL and 8.5 Log CFU/mL. Besides, the OD in experiment [2] was 0.712 and 0.730 and 0.758 and 0.721. Also, the “% Reduction” value in experiment [3] is 57% and 80% and 93% and 98%. In addition, the “ELISA: TSST-1 ng/OD unit” value in experiment [3] (setting [8]) is on record as 60 ng/OD unit; in experiment [3] (Table 2, 0.5% test compound), 68 ng/OD unit; in experiment [3] (Table 3, 0.5% test compound), 46 ng/OD unit; in experiment [3] (Table 4, 0.5% test compound), 25 ng/OD unit; in experiment [4] (0.25% test compound), 1 ng/OD unit; in experiment [4] (0.5% test compound), “none detected”. In addition, the “Reduction of Toxin %” value was 96% in experiment [3] (setting [9]); 32% in experiment [3] (setting [10]); 67% in experiment [3] (setting [11]); 90% in experiment [3] (setting [12]); 93% in experiment [3] (setting [13]); 98% in experiment [4] (0.25% test compound). For the same molecule, the “Reduction of Toxin %” value in experiment [4] (0.5% test compound) is 100%; in experiment [7], 99% and 95%. Further, the “ng TSST-1 per CFU” value in experiment [3] (setting [10]) is recorded as 266 ng per CFU; in experiment [3] (setting [11]) it was 129 ng per CFU; in experiment [3] (setting [12]), 39 ng per CFU; in experiment [3] (setting [13]), 27 ng per CFU. In addition, the “ng TSST-1 per mL” value in experiment [3] (setting [10]) was 826 ng per mL; in experiment [3] (setting [11]) it was 561 ng per mL; in experiment [3] (setting [12]), 201 ng per mL; in experiment [3] (setting [13]), 106 ng per mL. For the same molecule, the “ng TSST-1/OD” value in experiment [3] (Table 9, Glucopon 0 mM, PEA 0.05%) amounted to 323 ng/OD; in experiment [3] (Table 9, Glucopon 0 mM, PEA 0.15%) it was 152 ng/OD; in experiment [3] (Table 9, Glucopon 0 mM, PEA 0.3%), 54 ng/OD; in experiment [3] (Table 9, Glucopon 0 mM, PEA 0.50%), 13 ng/OD. The “reduction of the amount of exotoxin production” value in experiment [4] is “significantly reduced”. Besides, the “Hemolytic Endpoint 50% lysis” value in experiment [5] is on record as “None Detected”; in experiment [5] (Table 7, 0.3% test compound, reciprocal of the dilution giving 50% lysis), 3. Further, the “production of alpha toxin” value in experiment [5] is recorded as “significantly reduced”. Moreover, the “% Toxin Inhibition” value in experiment [5] (Table 7, 0.3% test compound) was 97%; in experiment [5] (Table 7, 0.4% test compound), 100%.
In the case of `CC(=O)N[C@@H](Cc1ccc(O)cc1)C(=O)O` [Acetyl tyrosine], in experiment [2], the CFU/mL is 1.7E+09 CFU/mL and the “Optical Density” value was found to be 0.549. For the same molecule, the “ELISA: TSST-1 ng/OD unit” value in experiment [3] (Table 3, 0.5% test compound) turned out to be 436 ng/OD unit.
For `OCc1ccccc1` [Benzyl alcohol], the CFU/mL in experiment [2] (24 h) stood at 1.8E+08 CFU/mL. Further, the “Optical Density” value in experiment [2] (24 h, 600 nm) was 0.792. Moreover, the “ELISA: TSST-1 ng/OD unit” value in experiment [3] (setting [8]) amounted to 131 ng/OD unit. In addition, in experiment [3] (setting [9]), the “Reduction of Toxin %” value turned out to be 91%.
Consider myreth-3 myristate [Cetiol 1414E], for which, in experiment [2], the “Log CFU/mL” value is 8.6 Log CFU/mL and 8.5 Log CFU/mL. Also, the OD in experiment [2] was 0.881 and 0.976 and 0.637. Besides, the “ng TSST-1 per CFU” value was determined as 239 ng per CFU in experiment [3] (Table 6, Cetiol 1414E 2.5 mM, PEA 0); 172 ng per CFU in experiment [3] (Table 6, Cetiol 1414E 5 mM, PEA 0); 61 ng per CFU in experiment [3] (Table 6, Cetiol 1414E 10 mM, PEA 0). The “% Reduction” value was 31% in experiment [3] (setting [14]); 51% in experiment [3] (Table 10, Cetiol 5 mM, PABA 0%); 53% in experiment [3] (setting [15]). Moreover, the “ng TSST-1/OD” value in experiment [3] (setting [14]) was determined as 3367 ng/OD; in experiment [3] (Table 10, Cetiol 5 mM, PABA 0%), 2419 ng/OD; in experiment [3] (setting [15]), 2286 ng/OD.
For the molecule `O=C(O)c1cc(O)c(O)c(O)c1` [Gallic acid], in experiment [2], the CFU/mL is reported as 1.2E+09 CFU/mL and the “Optical Density” value is 0.492. Further, the “ELISA: TSST-1 ng/OD unit” value in experiment [3] (Table 3, 0.5% test compound) came out at 63 ng/OD unit.
For the molecule `CC(=O)Nc1ccc(O)cc1` [4-Acetamidophenol], in experiment [2], the CFU/mL worked out at 2.4E+09 CFU/mL and the “Optical Density” value is recorded as 0.629. The “ELISA: TSST-1 ng/OD unit” value in experiment [3] (Table 4, 0.5% test compound) amounted to 230 ng/OD unit.
For `NC(=O)c1ccccc1O` [2-hydroxybenzamide], in experiment [2] (24 h), the CFU/mL is reported as 9.0E+07 CFU/mL. Also, the “Optical Density” value in experiment [2] (24 h, 600 nm) was found to be 0.549. Further, the “ELISA: TSST-1 ng/OD unit” value in experiment [3] (Table 1, 1.0% test compound, 24 h) was determined as 65 ng/OD unit. In addition, the “Reduction of Toxin %” value in experiment [3] (Table 1, 1.0% test compound, vs control) amounted to 95%.
Take `Nc1ccc(C(=O)O)cc1` [p-aminobenzoic acid]: the CFU/mL in experiment [2] is 1.1E+09 CFU/mL and 1.53E+09 CFU/mL and 1.85E+09 CFU/mL and 1.79E+09 CFU/mL and 1.15E+09 CFU/mL. The OD in experiment [2] was 0.546 and 0.558 and 0.599 and 0.589. For the same molecule, the “Optical Density” value in experiment [2] came out at 0.618. For the same molecule, in experiment [3] (Table 2, 0.2% test compound), the “ELISA: TSST-1 ng/OD unit” value was determined as 317 ng/OD unit. The “ng TSST-1/OD” value in experiment [3] (Table 10, Cetiol 0 mM, PABA 0.05%) was 5670 ng/OD; in experiment [3] (Table 10, Cetiol 0 mM, PABA 0.09%), 3389 ng/OD; in experiment [3] (Table 10, Cetiol 0 mM, PABA 0.19%), 1975 ng/OD; in experiment [3] (Table 10, Cetiol 0 mM, PABA 0.38%), 1039 ng/OD.
As for `O=C(O)/C=C/c1ccccc1` [Trans-cinnamic acid], in experiment [2], the CFU/mL was found to be 1.7E+09 CFU/mL and the “Optical Density” value is 0.549. Also, the “ELISA: TSST-1 ng/OD unit” value in experiment [3] (Table 3, 0.5% test compound) amounted to 436 ng/OD unit.
Take `O=C(O)c1ccccc1O` [2-hydroxybenzoic acid]: in experiment [2], the CFU/mL is 1.48E+09 CFU/mL and the “Optical Density” value was determined as 0.682. For the same molecule, the “ELISA: TSST-1 ng/OD unit” value in experiment [3] (Table 2, 0.2% test compound) was 193 ng/OD unit.
On to `COC(=O)c1ccc(O)cc1` [p-hydroxybenzoic acid, methyl ester], for which the CFU/mL in experiment [2] is above 1.5E+08 CFU/mL. Further, the “Optical Density” value in experiment [2] stood at 0.356. Besides, the “ELISA: TSST-1 ng/OD unit” value in experiment [3] (Table 2, 0.2% test compound) is given as 506 ng/OD unit. The “production of alpha toxin” value in experiment [5] was “significantly reduced”. For the same molecule, the “% Toxin Inhibition” value came out at 70% in experiment [5] (Table 8, 0.1% test compound) and 94% in experiment [5] (Table 8, 0.2% test compound). Moreover, the “Hemolytic Endpoint 50% lysis” value in experiment [5] (Table 8, 0.1% test compound, reciprocal of the dilution giving 50% lysis) is recorded as 79; in experiment [5] (Table 8, 0.2% test compound, reciprocal of the dilution giving 50% lysis) it was 16.

(Values after patent US7026354B2 (priority 2001, dated 2006).)
